In US20190030048A1, “CASEIN MICELLES FOR NANOENCAPSULATION OF HYDROPHOBIC COMPOUNDS” (TECHNION RESEARCH AND DEVELOPMENT FOUNDATION LTD., priority 2006, published 2019):
Values joined by “and” are separate entries in the source; they are usually repeats but may differ in a detail not shown here. Equal values may be shown once. Read-outs that look alike come from different tables or passages of the source.

Key:
[1] = Analytical fractionation (centrifugation) and RP-HPLC determination of vitamin D2 content in micelle pellet and serum; type: physicochemical; conditions: for recovered vitamin D2 found incorporated into the micelles (encapsulation efficiency): D2-rCM suspension
Method: Micelle preparations were centrifuged at 20° C. and 25,000×g for one hour and the supernatant was separated from the pellet by decantation. The supernatant was then ultra-filtered using Amicon 8050 stirred ultrafiltration cell with a 10,000 Da nominal molecular weight limit membrane (Millipore). All fractions were collected and analyzed for vitamin D2 content.
Each sample was then poured into a separatory funnel. […] After gentle mixing the phases were allowed to separate.

## C=C1CC[C@H](O)C/C1=C/C=C1\CCC[C@]2(C)[C@@H]([C@H](C)/C=C/[C@H](C)C(C)C)CC[C@@H]12 [vitamin D2, Vitamin D2]
0 h
  Percent of vitamin D2 remaining, micelle pellet: 100%
serum, 0 h
  Percent of vitamin D2 remaining, UV exposed serum (control II): 100%
  Percent of vitamin D2 remaining, serum: 100%
serum, 3 h
  Percent of vitamin D2 remaining, UV exposed serum (control II): 0.11%
[1]; CM prepared by ultra-high pressure homogenization
  vitamin concentration in the micelle pellet compared to the supernatant (serum): 4-5 times
[1]; CM prepared by ultra-high pressure homogenization, pellet
  vitamin content of pellet: 30.3±0.4 micrograms/mL
[1]; CM prepared by ultra-high pressure homogenization, supernatant
  vitamin content of supernatant: 6.7±0.7 micrograms/mL
[1]; more typically
  recovered vitamin D2 found incorporated into the micelles (encapsulation efficiency): 45-60%
[1]; overall range
  recovered vitamin D2 found incorporated into the micelles (encapsulation efficiency): 25-75%
[1]; D2-rCM, micelle pellet
  vitamin D2 concentration in the rCM: 44 to 57 µg/mL
[1]; D2-rCM, serum
  vitamin D2 concentration in serum: 2 to 8 µg/mL
[1]; D2-rCM, more typically
  vitamin D2 concentration in the rCM relative to its concentration in serum: 4-10 times and 5-10 times
